Paper PMC11348465, “Pharmacochemical Study of Multitarget Amino Acids’ Hybrids: Design, Synthesis, In vitro, and In silico Studies” (Medicinal Chemistry (Shariqah (United Arab Emirates), 2024)
pIC50: −log10 of the molar value.

Assays:
[1] = Inhibition of linoleic acid peroxidation (AAPH-induced)
Protocol: Our group evaluated the in vitro study as reported previously. Ten 16 mM sodium linoleate solution microliters were added to the UV cuvette containing 93 µL of a 0.05 M phosphate buffer, pH 7.4, and 10 µL of the tested compounds (final concentration 100 µM). The oxidation reaction started at 37 °C under air by adding 50 µL of the free radical initiator AAPH (40 mM). Oxidation was carried out and monitored at 234 nm. DMSO under the same conditions was used as a negative control. Trolox was used as the appropriate standard (positive control). The results are given in Table S1 in the supplementary material.
We used the water-soluble 2, 2’-azobis(2-amidinopropane) hydrochloride (AAPH) to generate in vitro peroxyl radicals through spontaneous thermal decomposition, which resembles cellular lipid peroxidation due to the activity of the undertaken radicals. The anti-lipid peroxidation activities were compared to a well-known antioxidant, i.e., Trolox (Table S1 in the supplementary material). […] In general, the anti-lipid peroxidation ranged from 8-99%. Except for acids 11, 12, 17, 19, 21, 22, 24, 25, and 28, which present high antioxidant activities (on the high % level), the other cinnamic acids present low or medium activity.

ovine COX-2 = biological target: T1, ovine COX-2 (Ovis aries, UniProt P79208); assay: Cyclooxygenase-2 inhibition study; format: biochemical; conditions: for pIC50: read-out: COX-2 inhibition (IC50); for COX-2 inhibition (%): % inhibition at 100 µM
T1 construct: purchased Cayman (USA)
T1 sequence (P79208 17-603): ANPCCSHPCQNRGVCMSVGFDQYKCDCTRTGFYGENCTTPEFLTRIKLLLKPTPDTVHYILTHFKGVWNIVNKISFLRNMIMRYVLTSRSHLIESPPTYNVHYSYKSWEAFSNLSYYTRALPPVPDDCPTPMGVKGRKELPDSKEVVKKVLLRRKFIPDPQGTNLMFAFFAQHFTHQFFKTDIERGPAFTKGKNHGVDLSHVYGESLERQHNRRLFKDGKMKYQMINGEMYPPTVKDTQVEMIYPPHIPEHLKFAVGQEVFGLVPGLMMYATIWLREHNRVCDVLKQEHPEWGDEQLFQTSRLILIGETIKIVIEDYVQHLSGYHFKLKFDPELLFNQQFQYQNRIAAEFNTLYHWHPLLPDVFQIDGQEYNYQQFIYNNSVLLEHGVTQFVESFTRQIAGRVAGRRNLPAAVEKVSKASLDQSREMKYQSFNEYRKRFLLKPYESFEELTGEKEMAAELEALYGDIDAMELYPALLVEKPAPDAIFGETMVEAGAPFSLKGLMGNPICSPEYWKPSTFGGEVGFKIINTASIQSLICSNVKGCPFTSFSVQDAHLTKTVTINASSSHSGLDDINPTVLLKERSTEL
Protocol: The in vitro study of cyclooxygenase (COX) activity was determined by using arachidonic acid (AA) as the substrate and N,N,N’,N’-tetramethylphenylenediamine (TMPD) as the co-substrate. […] The absorption due to the spontaneous oxidation of TMPD was subtracted from the initial rate of oxidation observed in the presence of AA. […] A blank determination was used first to serve as a negative control. Indomethacin was used as a reference COX-2 inhibitor (positive control).
The role of COX-2 in neurodegenerative diseases has been reported, and COX-2 inhibition is considered of high importance as a therapeutic tool. The designed derivatives were tested for their COX-2 inhibition activity on the ovine COX-2 enzyme. […] Indomethacin was used as a reference compound.

[2] = biological target: T2, soybean lipoxygenase (LOX-1) (Glycine max, UniProt P08170); assay: Soybean lipoxygenase inhibition study; format: biochemical; conditions: for LOX inhibition (%): % inhibition at 100 µM; for pIC50: read-out: LOX inhibition (IC50)
T2 construct: purchased Sigma Chemical, Co. (St Louis, MO, USA)
T2 sequence (P08170 1-839): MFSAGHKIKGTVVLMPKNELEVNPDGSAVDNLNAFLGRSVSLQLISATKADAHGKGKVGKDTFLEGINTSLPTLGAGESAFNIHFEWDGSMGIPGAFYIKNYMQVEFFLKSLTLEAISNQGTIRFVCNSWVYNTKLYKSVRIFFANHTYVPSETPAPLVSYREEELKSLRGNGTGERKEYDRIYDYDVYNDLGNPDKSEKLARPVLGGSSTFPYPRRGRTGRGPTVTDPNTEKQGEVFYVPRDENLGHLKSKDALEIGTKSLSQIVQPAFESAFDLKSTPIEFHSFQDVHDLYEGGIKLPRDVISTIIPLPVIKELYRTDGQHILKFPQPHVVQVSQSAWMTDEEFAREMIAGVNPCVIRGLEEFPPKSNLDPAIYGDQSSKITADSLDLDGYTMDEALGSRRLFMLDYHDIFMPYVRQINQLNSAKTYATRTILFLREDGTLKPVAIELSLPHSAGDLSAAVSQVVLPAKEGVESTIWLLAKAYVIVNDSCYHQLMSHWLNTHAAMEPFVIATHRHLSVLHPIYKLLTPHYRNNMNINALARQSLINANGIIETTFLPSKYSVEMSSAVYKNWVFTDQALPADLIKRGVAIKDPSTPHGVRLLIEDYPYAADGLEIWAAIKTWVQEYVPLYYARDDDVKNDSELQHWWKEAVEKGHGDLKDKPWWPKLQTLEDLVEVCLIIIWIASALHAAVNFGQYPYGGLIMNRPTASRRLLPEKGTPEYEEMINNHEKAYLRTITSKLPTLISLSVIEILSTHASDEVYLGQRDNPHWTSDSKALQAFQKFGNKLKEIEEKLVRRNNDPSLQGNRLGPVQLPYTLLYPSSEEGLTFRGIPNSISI
Protocol: Our group evaluated an in vitro study as reported previously. The tested hybrids were incubated at room temperature with sodium linoleate (100 µM) and 200 µL of enzyme solution (1/9 X 10^-4 w/v in saline). […] Different concentrations were used for the determination of IC50. A blank determination was used as a negative control.
Due to the limited work on sufficiently purified human ALOX-5 isoenzyme, most of the published research was performed on the soybean homolog. […] This study used the soybean isoenzyme LOX-1, which exerts maximal activity at pH 9.0 [72].

| pIC50 (ovine COX-2) | Compound | AAPH inhibition (%, at 100 µM) [1] [%] | also measured |
| --- | --- | --- | --- |
| 4.18 | CCOC(=O)CNC(=O)/C=C/c1ccc(Br)cc1 [Compound 14a] | 69 | – |
| 4.20 | CCOC(=O)CNC(=O)/C=C/c1ccc(Cl)cc1 [Compound 16a] | – | – |
| 4.03 | COC(=O)CCCNC(=O)/C=C/c1ccc(Cl)cc1 [Compound 16b] | 8 | – |
| 4.21 | COC(=O)CCCNC(=O)C=Cc1ccccc1 [Compound 22b] | 24 | – |
| 4.46 | CCOC(=O)CNC(=O)/C=C/C=C/c1ccccc1 [Compound 23a] | 85 | – |
| 4.26 | COC(=O)CCCNC(=O)/C=C/C=C/c1ccccc1 [Compound 23b] | 78 | – |
| 4.11 | CCOC(=O)CNC(=O)/C=C/c1ccc(C#N)cc1 [Compound 26a] | 37 | – |
| 4.49 | COC(=O)CCCNC(=O)/C=C/c1ccc(C#N)cc1 [Compound 26b] | 3 | – |
| 4.12 | COC(=O)CCCNC(=O)/C=C/c1ccc(F)cc1 [Compound 27b] | 22 | – |
| 4.24 | CCOC(=O)CNC(=O)/C=C/c1ccc(OC(C)=O)cc1 [Compound 30a] | – | – |
| 4.30 | COC(=O)CCCNC(=O)/C=C/c1ccc(OC(C)=O)cc1 [Compound 30b] | 9 | – |

Further lines, the molecule ahead of its results:

| Compound | pIC50 (ovine COX-2) | AAPH inhibition (%, at 100 µM) [1] [%] | also measured |
| --- | --- | --- | --- |
| CCOC(=O)CNC(=O)/C=C/c1ccc(OCc2ccc(Br)cc2)cc1 [Compound 11a, Ethyl (E)-(3-(4-((4-bromobenzyl)oxy)phenyl)acryloyl)glycinate] | 5.22 | 38 | – |
| COC(=O)CCCNC(=O)/C=C/c1ccc(OCc2ccc(Br)cc2)cc1 [Compound 11b] | – | 19 | LOX inhibition (%) [2]: 30% |
| COC(=O)CC[C@H](NC(=O)/C=C/c1ccc(OCc2ccc(Br)cc2)cc1)C(=O)OC [Compound 11c] | – | 92 | – |
| COC(=O)CC[C@H](NC(=O)/C=C/c1cccc(Oc2ccccc2)c1)C(=O)OC [Compound 12c] | – | 65 | pIC50 [2]: 4.22 |
| CCOC(=O)CNC(=O)/C=C/c1ccc(C(F)(F)F)cc1 [Compound 13a] | – | 8 | LOX inhibition (%) [2]: 31% |
| COC(=O)CC[C@H](NC(=O)/C=C/c1ccc(C(F)(F)F)cc1)C(=O)OC [Compound 13c] | – | 37 | pIC50 [2]: 4.10 |
| O=C(O)/C=C/c1ccc(Br)cc1 [Compound 14] | 4.00 | 13 | – |
| COC(=O)CCCNC(=O)/C=C/c1ccc(Br)cc1 [Compound 14b] | – | 11 | LOX inhibition (%) [2]: 12% |
| COC(=O)CC[C@H](NC(=O)/C=C/c1ccc(Br)cc1)C(=O)OC [Compound 14c] | – | 38 | pIC50 [2]: 4.12 |
| CCOC(=O)CNC(=O)/C=C/c1cccc(Br)c1 [Compound 15a] | – | 26 | pIC50 [2]: 4.24 |
| COC(=O)CCCNC(=O)/C=C/c1cccc(Br)c1 [Compound 15b] | – | 27 | COX-2 inhibition (%) (ovine COX-2): 43% |
| COC(=O)CC[C@H](NC(=O)/C=C/c1cccc(Br)c1)C(=O)OC [Compound 15c] | – | – | pIC50 [2]: 4.12 |
| O=C(O)/C=C/c1ccc(Cl)cc1 [Compound 16] | – | – | inhibition at 100 µM (ovine COX-2): 46% |
| COC(=O)CC[C@H](NC(=O)/C=C/c1ccc(Cl)cc1)C(=O)OC [Compound 16c] | – | 26 | – |
| O=C(O)/C=C/c1cccc2ccccc12 [Compound 17] | – | 78 | – |
| CCOC(=O)CNC(=O)/C=C/c1cccc2ccccc12 [Compound 17a] | – | – | LOX inhibition (%) [2]: 23% |
| COC(=O)CCCNC(=O)/C=C/c1ccc(OC)c(OC)c1 [Compound 18b] | – | 75 | LOX inhibition (%) [2]: 40% |
| COC(=O)CC[C@H](NC(=O)/C=C/c1ccc(OC)c(OC)c1)C(=O)OC [Compound 18c] | – | 74 | pIC50 [2]: 4.24 |
| CCOC(=O)CNC(=O)/C=C/c1cc(OC)ccc1OC [Compound 19a] | – | 89 | LOX inhibition (%) [2]: 28% |
| COC(=O)CCCNC(=O)/C=C/c1cc(OC)ccc1OC [Compound 19b] | – | 70 | COX-2 inhibition (%) (ovine COX-2): 20% |
| COC(=O)CC[C@H](NC(=O)/C=C/c1cc(OC)ccc1OC)C(=O)OC [Compound 19c] | – | 64 | LOX inhibition (%) [2]: 7% |
| COc1cc(/C=C/C(=O)O)ccc1O [Compound 24] | – | 86 | inhibition at 100 µM (ovine COX-2): 14% |
| CCOC(=O)CNC(=O)/C=C/c1ccc(O)cc1 [Compound 25a] | – | 39 | – |
| COC(=O)CC[C@H](NC(=O)/C=C/c1ccc(C#N)cc1)C(=O)OC [Compound 26c] | – | – | LOX inhibition (%) [2]: 10% |
| O=C(O)/C=C/c1ccc(F)cc1 [Compound 27] | – | – | inhibition at 100 µM (ovine COX-2): 46% |
| CCOC(=O)CNC(=O)/C=C/c1ccc(F)cc1 [Compound 27a] | – | 78 | – |
| O=C(O)/C=C/c1ccc(O)c(O)c1 [Compound 28, trans-caffeic acid] | – | 80 | inhibition at 100 µM (ovine COX-2): 6% |
| COC(=O)CCCNC(=O)/C=C/c1ccc2c(c1)OC(C)(C)O2 [Compound 29b] | – | – | COX-2 inhibition (%) (ovine COX-2): 4% |
| Cc1c(C)c2c(c(C)c1O)CCC(C)(C(=O)O)O2 (stereo not drawn) [Trolox, reference compound] | – | 92 | – |
